Like-named read-outs stand apart in the source and are kept apart here.
Biological target: T1, HDM2 (Homo sapiens, UniProt Q00987)
T1 construct: Thioredoxin (N); made in house; host or cells: E. coli strain BL21(DE3)Rosetta
Assay: HDM2 FRET assay (inhibition of binding of FITC labeled p53-pocket peptide to HDM2)
Conditions: read-out: FRET IC50
Outline: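 Compounds were tested in 10-point serial dilution against 0.5 nM recombinant HDM2 binding 3 nM fluorescein-labeled p53-pocket peptide. Detection used 0.25 nM terbium cryptate anti-6xHis antibody in PBS buffer containing 0.01% BSA and 0.01% Tween-20.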

[1] = 0.5 nM HDM2 (residues 17 to 125), 3nM peptide, two hour incubation at room temperature

T1 sequence (Q00987 17-125): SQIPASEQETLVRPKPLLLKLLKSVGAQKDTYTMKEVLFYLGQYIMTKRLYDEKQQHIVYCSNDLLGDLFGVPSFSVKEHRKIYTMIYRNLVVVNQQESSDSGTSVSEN

CC(c1cccc(F)c1)N(C)c1nc2nc(-c3noc(=O)[nH]3)nc(N[C@H](C)C3CCC3)c2n1Cc1ccc(C(F)(F)F)c(F)c1 (stereo partly drawn) [Example 9.73, 3-(6-{[(1R)-1-cyclobutylethyl]amino}-8-{[1-(3-fluorophenyl)ethyl](methyl)amino}-7-[3-fluoro-4-(trifluoromethyl)benzyl]-7H-purin-2-yl)-1,2,4-oxadiazol-5(4H)-one]
IC50 (Table 9): 16.2 nM

C[C@@H](Nc1nc(-c2noc(=O)[nH]2)nc2nc(N(C)CCCN3CCCC3)n(Cc3ccc(C(F)(F)F)cc3)c12)C1CCC1 [Example 9.100, 3-(6-{[(1R)-1-cyclobutylethyl]amino}-8-[methyl(3-pyrrolidin-1-ylpropyl)amino]-7-[4-(trifluoromethyl)benzyl]-7H-purin-2-yl)-1,2,4-oxadiazol-5(4H)-one]
IC50 (Table 9): 148 nM

C[C@@H](Nc1nc(-c2noc(=O)[nH]2)nc2nc(C(C)(F)c3ccccc3)n(C[C@H]3CC[C@H](C)CC3)c12)C1CCC1 (single isomer, unassigned) [Example 22.77]
IC50 (Table 22): 2.95 nM

C[C@@H](Nc1nc(C(=O)O)nc2nc(N3CCCCC3c3cccc(F)c3)n(C[C@H]3CC[C@H](C)CC3)c12)C1CCC1 (stereo partly drawn) [Example 11.16, 6-{[(1R)-1-cyclobutylethyl]amino}-8-[2-(3-fluorophenyl)piperidin-1-yl]-7-[(trans-4-methylcyclohexyl)methyl]-7H-purine-2-carboxylic acid]
IC50 (Table 11): 2.84 nM

C[C@@H](Nc1nc(-c2noc(=O)[nH]2)nc2nc(N3CCCC3CC(C)(C)C)n(C[C@H]3CC[C@H](C)CC3)c12)C1CCC1 (stereo partly drawn) [Example 11.37, 3-(6-{[(1R)-1-cyclobutylethyl]amino}-8-[2-(2,2-dimethylpropyl)pyrrolidin-1-yl]-7-[(trans-4-methylcyclohexyl)methyl]-7H-purin-2-yl)-1,2,4-oxadiazol-5(2H)-one]
IC50 (Table 11): 6.98 nM

CCOc1nc(C(=O)O)nc2nc(-c3cccc(C)c3)n(Cc3ccc(C(F)(F)F)cc3)c12 [Example 17.1, 6-ethoxy-8-(3-methylphenyl)-7-[4-(trifluoromethyl)benzyl]-7H-purine-2-carboxylic acid]
IC50 [1]: 5900 nM

C[C@H]1CC[C@H](Cn2c(N3CCOC[C@H]3c3ccccc3)nc3nc(-c4n[nH]c(=O)o4)nc(C4CCCCC4)c32)CC1 [Example 16.166, 5-{6-cyclohexyl-7-[(trans-4-methylcyclohexyl)methyl]-8-[(3R)-3-phenylmorpholin-4-yl]-7H -purin-2-yl}-1,3,4-oxadiazol-2(3H)-one]
IC50 [1]: 9.22 nM

CC1=CCC(Cn2c(-c3cc(C(C)C)ccn3)nc3nc(C(=O)O)nc(N[C@H](C)C4CCC4)c32)CC1 (stereo partly drawn) [Example 18.5, 6-(((R)-1-cyclobutylethyl)amino)-8-(4-isopropylpyridin-2-yl)-7-((4-methylcyclohex-3-en-1-yl)methyl)-7H-purine-2-carboxylic acid]
IC50 (Table 18): 6.48 nM

Cc1cccc(-c2nc3nc(C(=O)O)nc(N[C@H](CCCN(C)C)C4CCC4)c3n2Cc2ccc(C(F)(F)F)cc2)c1 [Example 7.11, 6-{[(1R)-1-cyclobutyl-4-(dimethylamino)butyl]amino}-8-(3-methylphenyl)-7-[4-(trifluoromethyl)benzyl]-7H-purine-2-carboxylic acid]
IC50 (Table 7): 323 nM

C[C@@H](Nc1nc(-c2noc(=O)[nH]2)nc2nc(N3CCCC3C3CCC3)n(C[C@H]3CC[C@H](C)CC3)c12)C1CCC1 (stereo partly drawn) [Example 11.38, 3-(6-{[(1R)-1-cyclobutylethyl]amino}-8-(2-cyclobutylpyrrolidin-1-yl)-7-[(trans-4-methylcyclohexyl)methyl]-7H-purin-2-yl)-1,2,4-oxadiazol-5(2H)-one]
IC50 (Table 11): 4.86 nM

CC(C)C(O)c1nc2nc(-c3noc(=O)[nH]3)nc(N[C@H](C)C3CCC3)c2n1C[C@H]1CC[C@H](C)CC1 (stereo partly drawn) [Example 22.48, 3-(6-{[(1R)-1-cyclobutylethyl]amino}-8-(1-hydroxy-2-methylpropyl)-7-[(trans-4-methylcyclohexyl)methyl] -7H-purin-2-yl)-1,2,4-oxadiazol-5(4H)-one]
IC50 (Table 22): 30.2 nM

COC(c1ccccc1)c1nc2nc(-c3noc(=O)[nH]3)nc(-c3cccc(Cl)c3)c2n1C[C@H]1CC[C@H](C)CC1 (single isomer, unassigned) [Example 23.44, 3-{6-(3-chlorophenyl)-8-[methoxy(phenyl)methyl]-7-[(trans-4-methylcyclohexyl)methyl] -7H-purin-2-yl}-1,2,4-oxadiazol-5(4H)-one]
IC50 (Table 23): 4.53 nM

CC[C@@H](Nc1nc(C(=O)O)nc2nc(-c3cc(C(C)C)ccn3)n(Cc3ccc(C(F)(F)F)cc3)c12)C1CCC1 [Example 6.55, 6-{[(1R)-1-cyclobutylpropyl]amino}-8-[4-(1-methylethyl)pyridin-2-yl]-7-[4-(trifluoromethyl)benzyl]-7H-purine-2-carboxylic acid]
IC50 (Table 6): 9.27 nM

Cc1cccc(-c2nc(-c3noc(=O)[nH]3)nc3nc(-c4cc(C(C)C)ccn4)n(C[C@H]4CC[C@H](C)CC4)c23)c1 [Example 16.15, 3-{7-[(trans-4-methylcyclohexyl)methyl]-8-[4-(1-methylethyl)pyridin-2-yl]-6-(3-methylphenyl)-7H-purin-2-yl}-1,2,4-oxadiazol-5(4H)-one]
IC50 [1]: 30 nM

C[C@@H](Nc1nc(S(=O)(=O)CCO)nc2nc(N3CCOC[C@H]3c3ccccc3)n(C[C@H]3CC[C@H](C)CC3)c12)C1CCC1 [Example 14.18, 2-[(6-{[(1R)-1-cyclobutylethyl]amino} -7-[(trans-4-methylcyclohexyl)methyl]-8-[(3R)-3-phenylmorpholin-4-yl]-7H-purin-2-yl)sulfonyl]ethanol]
IC50 [1]: 6.94 nM

C[C@@H](Nc1nc(C(=O)O)nc2nc(N[C@H](CO)c3ccccc3)n(Cc3ccc(C(F)(F)F)cc3)c12)C1CCC1 [Example 9.8, 6-{[(1R)-1-cyclobutylethyl]amino}-8-{[(1S)-2-hydroxy-1-phenylethyl]amino}-7-[4-(trifluoromethyl)benzyl]-7H-purine-2-carboxylic acid]
IC50 (Table 9): 15.2 nM

CC[C@@H]1COCCN1c1nc2nc(-c3noc(=O)[nH]3)nc(-c3cccc(Cl)c3)c2n1C[C@H]1CC[C@H](C)CC1 [Example 16.47, 3-{6-(3-chlorophenyl)-8-[(3R)-3-ethylmorpholin-4-yl]-7-[(trans-4-methylcyclohexyl)methyl]-7H-purin-2-yl}-1,2,4-oxadiazol-5(4H)-one]
IC50 [1]: 11.1 nM

C[C@@H](Nc1nc(-c2noc(=O)[nH]2)nc2nc(C3CCCCC3)n(C[C@H]3CC[C@H](C)CC3)c12)C1CCC1 [Example 21.39, 3-(6-{[(1R)-1-cyclobutylethyl]amino}-8-cyclohexyl-7-[(trans-4-methylcyclohexyl)methyl]-7H-purin-2-yl)-1,2,4-oxadiazol-5(4H)-one]
IC50 (Table 21): 7.87 nM

C[C@@H](Nc1nc(-c2noc(=O)[nH]2)nc2nc(N3CCCC[C@@H]3c3ccccc3)n(C[C@H]3CC[C@H](C)CC3)c12)C1CCC1 [Example 11.13, 3-(6-{[(1R)-1-cyclobutylethyl]amino}-7-[(trans-4-methylcyclohexyl)methyl]-8-[(2R)-2-phenylpiperidin-1-yl]-7H-purin-2-yl)-1,2,4-oxadiazol-5(4H)-one]
IC50 (Table 11): 26.7 nM

C[C@@H](Nc1nc(-c2noc(=O)[nH]2)nc2nc(N(C)Cc3cnccn3)n(C[C@H]3CC[C@H](C)CC3)c12)C1CCC1 [Example 11.72, 3-(6-{[(1R)-1-cyclobutylethyl]amino}-7-[(trans-4-methylcyclohexyl)methyl]-8-[methyl(pyrazin-2-ylmethyl)amino]-7H-purin-2-yl)-1,2,4-oxadiazol-5(2H)-one]
IC50 (Table 11): 5.98 nM

From patent EP2951180B1, “2,6,7,8 SUBSTITUTED PURINES AS HDM2 INHIBITORS” (Merck Sharp & Dohme Corp., priority 2013, dated 2014)
